US9695155B2, “Herbicidal substituted pyrimidinyloxy benzene compounds” (E. I. DU PONT DE NEMOURS AND COMPANY, priority 2013, dated 2017)

Experiments:
barnyardgrass [1] = assay: Test B flooded paddy test; assay type: in vivo, Echinochloa crus-galli; conditions: Flood, 250 g ai/ha; 0 to 100 scale where 0 is no effect and 100 is complete control
Procedure, shortened: (§1)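 Scores from 0 (no effect) to 100 (complete control) are visual comparisons with controls, taken 13 to 15 days after compound was applied into floodwater 3 cm deep around 2-leaf plants.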

morningglory [2] = assay: Test A preemergence; assay type: in vivo, Ipomoea spp.
Procedure, shortened: (§2)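 Pre- and postemergence greenhouse screen. Soil: loam + sand. Spray carrier: solvent mixture, non-phytotoxic, with surfactant. Post timing at 1–2 leaves, height 2–10 cm. Readout: visual injury on a 0–100 scale roughly 10 days after application, untreated plants as reference.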

wild oat = assay: Test C postemergence; assay type: in vivo, Avena fatua; conditions: for Plant response rating (0 to 100), Oat, Wild: postemergence; for Plant response rating, Oat, Wild: Postemergence, scale 0 to 100 (0 no effect, 100 complete control)
Procedure, shortened: (§3)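 Injury was assessed visually against controls 13 to 15 days after application, with 0 meaning no effect and 100 full control; missing entries are shown as a dash. Preemergence sprays hit seeded loam–sand soil, postemergence sprays hit 1- to 4-leaf plants.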

Heteranthera limosa = assay: Test B flooded paddy test; assay type: in vivo; conditions: Flood, 250 g ai/ha; 0 to 100 scale where 0 is no effect and 100 is complete control
Procedure, shortened: as §1

wheat = assay: Test A postemergence; assay type: in vivo, Triticum aestivum; conditions: 0 to 100 scale where 0 is no effect and 100 is complete control
Procedure, shortened: as §2

johnsongrass = assay: Test C postemergence; assay type: in vivo, Sorghum halepense; conditions: for Plant response rating, Johnsongrass: Postemergence
Procedure, shortened: as §3

corn = assay: Test A preemergence; assay type: in vivo, Zea mays
Procedure, shortened: as §2

blackgrass [3] = assay: Test C postemergence; assay type: in vivo, Alopecurus myosuroides; conditions: for Plant response rating, Blackgrass: Postemergence
Procedure, shortened: as §3

large (Lg) crabgrass [4] = assay: Test A preemergence; assay type: in vivo, Digitaria sanguinalis
Procedure, shortened: as §2

barnyardgrass [5] = assay: Test A preemergence; assay type: in vivo, Echinochloa crus-galli; conditions: for Plant response rating, Barnyardgrass: 125 g ai/ha, 0 to 100 scale where 0 is no effect and 100 is complete control; for Barnyardgrass plant response rating: 500 g ai/ha, 0 to 100 scale, 0 no effect, 100 complete control, approx. 10 days
Procedure, shortened: as §2

morningglory [6] = assay: Test A postemergence; assay type: in vivo, Ipomoea spp.; conditions: 0 to 100 scale where 0 is no effect and 100 is complete control
Procedure, shortened: as §2

large (Lg) crabgrass [7] = assay: Test A postemergence; assay type: in vivo, Digitaria sanguinalis
Procedure, shortened: as §2

Italian ryegrass = assay: Test C preemergence; assay type: in vivo, Lolium multiflorum; conditions: for Ryegrass, Italian plant response rating: preemergence
Procedure, shortened: as §3

blackgrass [8] = assay: Test C preemergence; assay type: in vivo, Alopecurus myosuroides; conditions: for Blackgrass plant response rating: preemergence
Procedure, shortened: as §3

wheat, winter = assay: Test C preemergence; assay type: in vivo, Triticum aestivum; conditions: for Wheat plant response rating: preemergence
Procedure, shortened: as §3

large (Lg) crabgrass [9] = assay: Test C preemergence; assay type: in vivo, Digitaria sanguinalis; conditions: for Crabgrass, Large plant response rating: preemergence
Procedure, shortened: as §3

[10] = 125 g ai/ha, 0 to 100 scale where 0 is no effect and 100 is complete control
[11] = 500 g ai/ha, 0 to 100 scale, 0 no effect, 100 complete control, approx. 10 days
[12] = 62 g ai/ha, scale 0 to 100 (0 no effect, 100 complete control)
[13] = 31 g ai/ha, scale 0 to 100 (0 no effect, 100 complete control), 13 to 15 days
[14] = 16 g ai/ha, scale 0 to 100 (0 no effect, 100 complete control)
[15] = 62 g ai/ha, scale 0 (no effect) to 100 (complete control)
[16] = 125 g ai/ha, scale 0 (no effect) to 100 (complete control)
[17] = Preemergence, 31 g ai/ha, scale 0 to 100, 0 no effect, 100 complete control
[18] = 16 g ai/ha, postemergence, visual rating, scale 0 to 100 (0 no effect, 100 complete control), 13 to 15 days

N#Cc1cccc(Oc2ncc(Cl)cn2)c1-n1cnc(Br)c1 [Compound 74]
Plant response rating, Barnyardgrass (barnyardgrass [1]): 0
Plant response rating, Morningglory (morningglory [2]; [10]): 70
Morningglory plant response rating (morningglory [2]; [11]): 100
Plant response rating (0 to 100), Oat, Wild (wild oat; 125 g ai/ha): 10
Plant response rating (0 to 100), Oat, Wild (wild oat; 250 g ai/ha): 10
Plant response rating, Oat, Wild (wild oat; 31 g ai/ha, 13 to 15 days): 0
Plant response rating, Oat, Wild (wild oat; 62 g ai/ha): 0
Plant response rating, Ducksalad (Heteranthera limosa): 40
Plant response rating, Wheat (wheat; 125 g ai/ha): 0
Plant response rating, Wheat (wheat; 500 g ai/ha): 50
Plant response rating (0 to 100), Johnsongrass (johnsongrass; 125 g ai/ha, postemergence): 25
Plant response rating (0 to 100), Johnsongrass (johnsongrass; 250 g ai/ha, postemergence): 25
Plant response rating, Johnsongrass (johnsongrass; [12]): 0
Plant response rating, Corn (corn; [10]): 0
Corn plant response rating (corn; [11]): 40
Plant response rating (0 to 100), Blackgrass (blackgrass [3]; 125 g ai/ha, postemergence): 0
Plant response rating (0 to 100), Blackgrass (blackgrass [3]; 250 g ai/ha, postemergence): 5
Plant response rating, Blackgrass (blackgrass [3]; [13]): 0
Plant response rating, Blackgrass (blackgrass [3]; [12]): 0
Plant response rating, Crabgrass, Large (large (Lg) crabgrass [4]; [10]): 100
Crabgrass, Large plant response rating (large (Lg) crabgrass [4]; [11]): 100
Plant response rating, Barnyardgrass (barnyardgrass [5]): 70
Barnyardgrass plant response rating (barnyardgrass [5]): 100
Plant response rating, Morningglory (morningglory [6]; 125 g ai/ha): 80
Plant response rating, Morningglory (morningglory [6]; 500 g ai/ha): 100
Plant response rating, Crabgrass, Large (large (Lg) crabgrass [7]; [10]): 70
Plant response rating, Crabgrass, Large (large (Lg) crabgrass [7]; 500 g ai/ha, 0 to 100 scale, 0 no effect, 100 complete control): 90

FCc1cccc(Oc2ncc(Cl)cn2)c1-n1cc(Br)cn1 [Compound 83]
Plant response rating, Barnyardgrass (barnyardgrass [1]): 0
Ryegrass, Italian plant response rating (Italian ryegrass; [14]): 0
Ryegrass, Italian plant response rating (Italian ryegrass; [15]): 30
Ryegrass, Italian plant response rating (Italian ryegrass; [16]): 50
Plant response rating, Ryegrass, Italian (Italian ryegrass; [17]): 0
Plant response rating (0 to 100), Oat, Wild (wild oat; 125 g ai/ha): 5
Plant response rating, Oat, Wild (wild oat; 31 g ai/ha, 13 to 15 days): 0
Plant response rating, Oat, Wild (wild oat; 62 g ai/ha): 10
Plant response rating, Ducksalad (Heteranthera limosa): 45
Plant response rating, Wheat (wheat; 125 g ai/ha): 0
Plant response rating, Wheat (wheat; 500 g ai/ha): 60
Johnsongrass plant response rating (johnsongrass; [18]): 0
Plant response rating (0 to 100), Johnsongrass (johnsongrass; 125 g ai/ha, postemergence): 10
Plant response rating, Johnsongrass (johnsongrass; [13]): 0
Plant response rating, Johnsongrass (johnsongrass; [12]): 10
Blackgrass plant response rating (blackgrass [8]; [14]): 0
Blackgrass plant response rating (blackgrass [8]; [15]): 90
Blackgrass plant response rating (blackgrass [8]; [16]): 85
Plant response rating, Blackgrass (blackgrass [8]; [17]): 5
Wheat plant response rating (wheat, winter; [14]): 0
Wheat plant response rating (wheat, winter; [15]): 0
Wheat plant response rating (wheat, winter; [16]): 0
Plant response rating, Wheat (wheat, winter; [17]): 0
Blackgrass plant response rating (blackgrass [3]; [18]): 0
Plant response rating (0 to 100), Blackgrass (blackgrass [3]; 125 g ai/ha, postemergence): 20
Plant response rating, Blackgrass (blackgrass [3]; [13]): 5
Plant response rating, Blackgrass (blackgrass [3]; [12]): 5
Plant response rating, Barnyardgrass (barnyardgrass [5]): 60
Barnyardgrass plant response rating (barnyardgrass [5]): 90
Crabgrass, Large plant response rating (large (Lg) crabgrass [9]; [14]): 65
Crabgrass, Large plant response rating (large (Lg) crabgrass [9]; [15]): 100
Crabgrass, Large plant response rating (large (Lg) crabgrass [9]; [16]): 100
Plant response rating, Crabgrass, Large (large (Lg) crabgrass [9]; [17]): 85
